This is an account of results in patent US5965527A, “Cyclosporin compounds, their preparation and the pharmaceutical compositions which contain them” (Rhone-Poulenc Rorer, S.A., priority 1996, dated 1999).

This assay has as its system retroviruses. Particulars: combined with AZT, ddl, Saquinavir and/or ribavirin.

Turning to “[(R)-2-(N,N-Dimethylamino)ethylthio-Sar]^3 -cyclosporin A [Example 2]”, the effect in combination entry is on record as “particularly advantageous effect”.
